Measured values from the supplement of paper PMC10307832.

Assays:
Experiment in all cases: relative viability (nuclei count vs DMSO), 5 days (fraction); higher = more cells survive
NCI-H2228 = system: NCI-H2228
Summary of the method: (§1)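 Relative viability equals treated-well nuclei counts divided by vehicle-well nuclei counts. Counts came from 4× images of lung cancer cell lines grown in 1536-well plates for 5 days after pin-tool dosing on the day after seeding. Dosing used one drug alone or a fixed anchor-drug dose plus five library-drug doses (not always all listed) in √10 steps, and values are medians of duplicate plates.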

PC-14 = system: PC-14
Summary of the method: as §1

NCI-H460 = system: NCI-H460
Summary of the method: as §1

LCLC-103H = system: LCLC-103H
Summary of the method: as §1

NCI-H23 = system: NCI-H23
Summary of the method: as §1

NCI-H1650 = system: NCI-H1650
Summary of the method: as §1

HCC-44 = system: HCC-44
Summary of the method: as §1

LK-2 = system: LK-2
Summary of the method: as §1

LC-2-ad = system: LC-2-ad
Summary of the method: as §1

LU99A = system: LU99A
Summary of the method: as §1

SW 1573 = system: SW 1573
Summary of the method: as §1

201T = system: 201T
Summary of the method: as §1

NCI-H596 = system: NCI-H596
Summary of the method: as §1

COR-L23 = system: COR-L23
Summary of the method: as §1

SW 900 = system: SW 900
Summary of the method: as §1

LCLC-97TM1 = system: LCLC-97TM1
Summary of the method: as §1

NCI-H1563 = system: NCI-H1563
Summary of the method: as §1

A-427 = system: A-427
Summary of the method: as §1

NCI-H2347 = system: NCI-H2347
Summary of the method: as §1

NCI-H1793 = system: NCI-H1793
Summary of the method: as §1

NCI-H727 = system: NCI-H727
Summary of the method: as §1

H3255 = system: H3255
Summary of the method: as §1

SMILES: COc1cc2nccc(Oc3ccc(NC(=O)Nc4cc(C)on4)c(Cl)c3)c2cc1OC [Tivozanib] + N=C(N)NC(=N)NCCc1ccccc1 [Phenformin] (partner 250 µM)
- relative viability (NCI-H2228; first compound 0.005 µM): 0.306
- relative viability (NCI-H2228; first compound 0.01581 µM): 0.283
- relative viability (NCI-H2228; first compound 0.05 µM): 0.325
- relative viability (NCI-H2228; first compound 0.1581 µM): 0.288
- relative viability (NCI-H2228; first compound 0.5 µM): 0.406
- relative viability (PC-14; first compound 0.005 µM): 0.443
- relative viability (PC-14; first compound 0.01581 µM): 0.656
- relative viability (PC-14; first compound 0.05 µM): 0.588
- relative viability (PC-14; first compound 0.1581 µM): 0.611
- relative viability (PC-14; first compound 0.5 µM): 0.501
- relative viability (NCI-H460; first compound 0.005 µM): 0.491
- relative viability (NCI-H460; first compound 0.01581 µM): 0.537
- relative viability (NCI-H460; first compound 0.05 µM): 0.509
- relative viability (NCI-H460; first compound 0.1581 µM): 0.547
- relative viability (NCI-H460; first compound 0.5 µM): 0.503
- relative viability (LCLC-103H; first compound 0.005 µM): 0.325
- relative viability (LCLC-103H; first compound 0.01581 µM): 0.326
- relative viability (LCLC-103H; first compound 0.05 µM): 0.35
- relative viability (LCLC-103H; first compound 0.1581 µM): 0.306
- relative viability (LCLC-103H; first compound 0.5 µM): 0.348
- relative viability (NCI-H23; first compound 0.005 µM): 0.727
- relative viability (NCI-H23; first compound 0.01581 µM): 0.824
- relative viability (NCI-H23; first compound 0.05 µM): 0.783
- relative viability (NCI-H23; first compound 0.1581 µM): 0.752
- relative viability (NCI-H23; first compound 0.5 µM): 0.809
- relative viability (NCI-H1650; first compound 0.005 µM): 0.454
- relative viability (NCI-H1650; first compound 0.01581 µM): 0.515
- relative viability (NCI-H1650; first compound 0.05 µM): 0.486
- relative viability (NCI-H1650; first compound 0.1581 µM): 0.497
- relative viability (NCI-H1650; first compound 0.5 µM): 0.353
- relative viability (HCC-44; first compound 0.005 µM): 0.152
- relative viability (HCC-44; first compound 0.01581 µM): 0.234
- relative viability (HCC-44; first compound 0.05 µM): 0.19
- relative viability (HCC-44; first compound 0.1581 µM): 0.18
- relative viability (HCC-44; first compound 0.5 µM): 0.131
- relative viability (LK-2; first compound 0.005 µM): 0.459
- relative viability (LK-2; first compound 0.01581 µM): 0.457
- relative viability (LK-2; first compound 0.05 µM): 0.512
- relative viability (LK-2; first compound 0.1581 µM): 0.283
- relative viability (LK-2; first compound 0.5 µM): 0.199
- relative viability (LC-2-ad; first compound 0.005 µM): 0.593
- relative viability (LC-2-ad; first compound 0.01581 µM): 0.548
- relative viability (LC-2-ad; first compound 0.05 µM): 0.579
- relative viability (LC-2-ad; first compound 0.1581 µM): 0.514
- relative viability (LC-2-ad; first compound 0.5 µM): 0.387
- relative viability (LU99A; first compound 0.005 µM): 0.79
- relative viability (LU99A; first compound 0.01581 µM): 0.768
- relative viability (LU99A; first compound 0.05 µM): 0.879
- relative viability (LU99A; first compound 0.1581 µM): 0.769
- relative viability (LU99A; first compound 0.5 µM): 0.755
- relative viability (SW 1573; first compound 0.005 µM): 0.361
- relative viability (SW 1573; first compound 0.01581 µM): 0.362
- relative viability (SW 1573; first compound 0.05 µM): 0.369
- relative viability (SW 1573; first compound 0.1581 µM): 0.306
- relative viability (SW 1573; first compound 0.5 µM): 0.386
- relative viability (201T; first compound 0.005 µM): 0.447
- relative viability (201T; first compound 0.01581 µM): 0.405
- relative viability (201T; first compound 0.05 µM): 0.423
- relative viability (201T; first compound 0.1581 µM): 0.445
- relative viability (201T; first compound 0.5 µM): 0.469
- relative viability (NCI-H596; first compound 0.005 µM): 0.744
- relative viability (NCI-H596; first compound 0.01581 µM): 0.699
- relative viability (NCI-H596; first compound 0.05 µM): 0.777
- relative viability (NCI-H596; first compound 0.5 µM): 0.798
- relative viability (COR-L23; first compound 0.005 µM): 0.427
- relative viability (COR-L23; first compound 0.01581 µM): 0.433
- relative viability (COR-L23; first compound 0.05 µM): 0.446
- relative viability (COR-L23; first compound 0.1581 µM): 0.43
- relative viability (COR-L23; first compound 0.5 µM): 0.409
- relative viability (SW 900; first compound 0.005 µM): 0.554
- relative viability (SW 900; first compound 0.01581 µM): 0.71
- relative viability (SW 900; first compound 0.05 µM): 0.731
- relative viability (SW 900; first compound 0.1581 µM): 0.492
- relative viability (SW 900; first compound 0.5 µM): 0.524
- relative viability (LCLC-97TM1; first compound 0.005 µM): 0.423
- relative viability (LCLC-97TM1; first compound 0.01581 µM): 0.49
- relative viability (LCLC-97TM1; first compound 0.05 µM): 0.417
- relative viability (LCLC-97TM1; first compound 0.1581 µM): 0.473
- relative viability (LCLC-97TM1; first compound 0.5 µM): 0.395
- relative viability (NCI-H1563; first compound 0.005 µM): 0.602
- relative viability (NCI-H1563; first compound 0.01581 µM): 0.634
- relative viability (NCI-H1563; first compound 0.05 µM): 0.696
- relative viability (NCI-H1563; first compound 0.1581 µM): 0.735
- relative viability (NCI-H1563; first compound 0.5 µM): 0.666
- relative viability (A-427; first compound 0.005 µM): 0.337
- relative viability (A-427; first compound 0.01581 µM): 0.308
- relative viability (A-427; first compound 0.05 µM): 0.363
- relative viability (A-427; first compound 0.1581 µM): 0.315
- relative viability (A-427; first compound 0.5 µM): 0.241
- relative viability (NCI-H2347; first compound 0.01581 µM): 0.484
- relative viability (NCI-H2347; first compound 0.05 µM): 0.512
- relative viability (NCI-H2347; first compound 0.5 µM): 0.438
- relative viability (NCI-H1793; first compound 0.005 µM): 0.35
- relative viability (NCI-H1793; first compound 0.01581 µM): 0.352
- relative viability (NCI-H1793; first compound 0.05 µM): 0.419
- relative viability (NCI-H1793; first compound 0.1581 µM): 0.309
- relative viability (NCI-H1793; first compound 0.5 µM): 0.335
- relative viability (NCI-H727; first compound 0.005 µM): 0.664
- relative viability (NCI-H727; first compound 0.01581 µM): 0.489
- relative viability (NCI-H727; first compound 0.05 µM): 0.439
- relative viability (NCI-H727; first compound 0.1581 µM): 0.403
- relative viability (NCI-H727; first compound 0.5 µM): 0.558
- relative viability (H3255; first compound 0.005 µM): 0.332
- relative viability (H3255; first compound 0.01581 µM): 0.333
- relative viability (H3255; first compound 0.05 µM): 0.354
- relative viability (H3255; first compound 0.1581 µM): 0.339
- relative viability (H3255; first compound 0.5 µM): 0.351
